# Test results as given in patent publication US12344595B2, “2-amino-n-phenyl-nicotinamides as NAV1.8 inhibitors” (Merck Sharp & Dohme LLC, priority 2018, dated 2025).
# pIC50: −log10 of the molar value.
# Biological target: human Nav1.8 (Homo sapiens (Human), UniProt Q9Y5Y9)
# Assay: Nav1.8 Qube automated patch-clamp assay
# Format: cell-based
# Details: Nav1.8 Qube Assay; human Nav1.8 channels stably expressed in HEK 293 cells
# Method in brief: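 Whole-cell automated patch clamp was run at room temperature on HEK293 cells stably expressing the channel. A 1 Hz, 10 s train of 20 ms pulses to 10 mV from −90 mV (repolarizing to −67 mV) was applied. Peak currents at the 1st and 10th pulses gave resting and inactivated-state IC50 values by Hill fit.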
# Chain of human Nav1.8 (Q9Y5Y9 whole entry): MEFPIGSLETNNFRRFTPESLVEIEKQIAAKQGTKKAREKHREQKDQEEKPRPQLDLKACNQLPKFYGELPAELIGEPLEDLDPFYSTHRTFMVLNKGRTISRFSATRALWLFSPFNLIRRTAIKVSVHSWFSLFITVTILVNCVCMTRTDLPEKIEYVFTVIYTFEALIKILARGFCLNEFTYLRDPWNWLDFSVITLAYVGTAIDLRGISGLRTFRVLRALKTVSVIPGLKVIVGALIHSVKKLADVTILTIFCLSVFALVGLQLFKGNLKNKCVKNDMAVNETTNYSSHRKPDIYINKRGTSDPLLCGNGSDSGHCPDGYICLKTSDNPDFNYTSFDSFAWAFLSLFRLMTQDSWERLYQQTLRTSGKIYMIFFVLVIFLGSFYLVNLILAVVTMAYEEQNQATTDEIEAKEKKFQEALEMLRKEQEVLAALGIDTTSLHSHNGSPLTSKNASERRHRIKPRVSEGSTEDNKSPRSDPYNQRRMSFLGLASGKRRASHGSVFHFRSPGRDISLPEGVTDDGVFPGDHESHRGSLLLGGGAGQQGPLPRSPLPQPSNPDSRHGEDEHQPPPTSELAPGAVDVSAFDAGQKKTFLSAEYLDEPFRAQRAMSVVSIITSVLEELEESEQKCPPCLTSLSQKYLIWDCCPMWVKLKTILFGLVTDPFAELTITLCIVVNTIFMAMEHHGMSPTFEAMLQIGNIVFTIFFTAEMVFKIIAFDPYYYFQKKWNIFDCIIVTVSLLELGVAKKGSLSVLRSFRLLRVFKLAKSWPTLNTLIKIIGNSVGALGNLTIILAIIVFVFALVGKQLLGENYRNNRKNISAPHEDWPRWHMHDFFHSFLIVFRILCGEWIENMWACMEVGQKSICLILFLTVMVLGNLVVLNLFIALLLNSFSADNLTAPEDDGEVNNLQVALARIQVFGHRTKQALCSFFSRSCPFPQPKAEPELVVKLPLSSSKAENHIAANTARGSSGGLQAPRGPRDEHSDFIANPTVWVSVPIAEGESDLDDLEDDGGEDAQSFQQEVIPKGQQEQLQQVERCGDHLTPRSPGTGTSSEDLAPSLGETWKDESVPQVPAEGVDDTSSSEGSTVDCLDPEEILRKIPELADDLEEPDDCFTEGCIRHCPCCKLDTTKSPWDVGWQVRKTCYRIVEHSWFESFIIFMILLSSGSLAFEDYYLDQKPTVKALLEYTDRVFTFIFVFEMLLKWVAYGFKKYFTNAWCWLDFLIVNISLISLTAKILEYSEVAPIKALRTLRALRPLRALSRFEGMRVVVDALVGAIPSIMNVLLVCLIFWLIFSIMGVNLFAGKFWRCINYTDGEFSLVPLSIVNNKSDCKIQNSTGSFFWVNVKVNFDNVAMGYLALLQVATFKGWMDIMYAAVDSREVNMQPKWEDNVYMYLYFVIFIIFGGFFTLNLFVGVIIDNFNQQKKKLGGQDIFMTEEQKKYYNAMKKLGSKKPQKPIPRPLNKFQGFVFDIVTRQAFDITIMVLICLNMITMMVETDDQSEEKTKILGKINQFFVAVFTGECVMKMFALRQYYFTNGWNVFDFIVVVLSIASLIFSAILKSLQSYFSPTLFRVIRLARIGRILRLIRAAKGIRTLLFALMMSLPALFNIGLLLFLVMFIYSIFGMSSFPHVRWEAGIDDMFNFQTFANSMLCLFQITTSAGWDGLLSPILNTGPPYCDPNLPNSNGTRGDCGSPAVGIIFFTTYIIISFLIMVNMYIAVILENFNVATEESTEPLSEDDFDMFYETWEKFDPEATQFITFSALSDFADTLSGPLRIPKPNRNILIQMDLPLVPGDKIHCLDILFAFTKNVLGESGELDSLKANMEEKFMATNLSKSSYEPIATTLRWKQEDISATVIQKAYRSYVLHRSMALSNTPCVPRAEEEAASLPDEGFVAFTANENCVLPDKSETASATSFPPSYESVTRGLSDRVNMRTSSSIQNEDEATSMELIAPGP
row,Structure (SMILES),pIC50
1,"NS(=O)(=O)c1cccc(NC(=O)c2cc(C(F)(F)C(F)(F)F)cnc2N2CCCCCC2)c1 [Example 164, 2-(azepan-1-yl)-5-(perfluoroethyl)-N-(3-sulfamoylphenyl)nicotinamide]",7.82
2,"CS(=O)(=O)c1cccc(NC(=O)c2cc(C(F)(F)F)cnc2N2CCC(F)CC2)c1 [Example 100, 2-(4-fluoro-1-piperidyl)-N-(3-methylsulfonylphenyl)-5-(trifluoromethyl)-pyridine-3-carboxamide]",6.64
3,"Cc1nc(N2CCC3(CC2)CC3)c(C(=O)Nc2cccc(C(N)=O)c2)c(C)c1Cl [Example 13, 2-(6-azaspiro[2.5]-octan-6-yl)-N-(3-carbamoyl-phenyl)-5-chloro-4,6-dimethyl-pyridine-3-carboxamide]",7.89
4,"C[Si](C)(C)c1cnc(N2CCC3(CC2)COC3)c(C(=O)Nc2cccc(S(N)(=O)=O)c2)c1 [Example 87, 2-(2-oxa-7-azaspiro-[3.5]nonan-7-yl)-N-(3-sulfamoylphenyl)-5-(trimethylsilyl)-nicotinamide]",5.10
5,"CC12CCN(c3ncc(C(F)(F)F)cc3C(=O)Nc3cccc(S(N)(=O)=O)c3)CC1C2(F)F (single isomer, unassigned) [Example 128, 2-[(1R,6R or 1S,6S)-7,7-difluoro-6-methyl-3-azabicyclo[4.1.0]heptan-3-yl]-N-(3-sulfamoyl-phenyl)-5-(trifluoro-methyl)-pyridine-3-carboxamide]",7.85
6,"CN1Cc2ccc(NC(=O)c3cc(C(F)(F)F)cnc3N3CCCCCC3)cc2S1(=O)=O [Example 122, 2-(azepan-1-yl)-3-((2-methyl-1,1-dioxido-2,3-dihydrobenzo[d]isothiazol-6-yl)-carbamoyl)-5-(trifluoromethyl)pyridine]",5.04
7,"CS(=O)(=O)c1cccc(NC(=O)c2cc(Cl)cnc2N2CCCC(F)(F)CC2)c1 [Example 173, 5-chloro-2-(4,4-difluoroazepan-1-yl)-N-(3-(methylsulfonyl)phenyl)nicotinamide]",8.11
8,"C[C@@H]1CN(c2ncc(C(F)(F)F)cc2C(=O)Nc2ccc3c(c2)S(=O)(=O)NC3)C[C@H](C)C1(F)F [Example 111, 2-[(3S,5R)-4,4-difluoro-3,5-dimethyl-1-piperidyl]-N-(1,1-dioxo-2,3-dihydro-1,2-benzothiazol-6-yl)-5-(trifluoromethyl) pyridine-3-carboxamide]",7.20
9,"C=CCCc1cnc(N2CCCC(F)(F)CC2)c(C(=O)Nc2cccc(S(N)(=O)=O)c2)c1 [Example 161, 5-(but-3-en-1-yl)-2-(4,4-difluoroazepan-1-yl)-N-(3-sulfamoylphenyl)nicotinamide]",8.49
10,"NS(=O)(=O)c1cccc(NC(=O)c2ccc(F)nc2N2CCCCCC2)c1 [Example 93, 2-(azepan-1-yl)-6-fluoro-N-(3-sulfamoyl-phenyl)pyridine-3-carboxamide]",7.23
11,"NS(=O)(=O)c1cccc(NC(=O)c2ccc(OC(F)(F)F)nc2N2CCCCC2)c1 [Example 84, 2-(piperidin-1-yl)-N-(3-sulfamoylphenyl)-6-(trifluoromethoxy)nicotinamide]",6.61
12,"NS(=O)(=O)c1cccc(NC(=O)c2cc(C(F)(F)F)cnc2N2CC3CC4CC(C3)CC2C4)c1 [Example 46, N-(3-sulfamoylphenyl)-2-(4-azatricyclo-[4.3.1.13,8]undecan-4-yl)-5-(trifluoromethyl)-nicotinamide]",7.92
13,"NS(=O)(=O)c1cccc(NC(=O)c2cc(C(F)(F)F)cnc2N2CC3CCC(C2)O3)c1 [Example 57, 2-(8-oxa-3-azabicyclo[3.2.1]octan-3-yl)-N-(3-sulfamoyl-phenyl)-5-(trifluoro-methyl)pyridine-3-carboxamide]",6.24
14,"CC(C)c1cnc(N2CCCC(F)(F)CC2)c(C(=O)Nc2cccc(S(N)(=O)=O)c2)c1 [Example 162, 2-(4,4-difluoroazepan-1-yl)-5-isopropyl-N-(3-sulfamoylphenyl)nicotinamide]",8.15
15,"CC(C)CS(=O)(=O)c1cccc(NC(=O)c2cc(C(F)(F)F)cnc2N2CCCCCC2)c1 [Example 119, 2-(azepan-1-yl)-N-(3-isobutylsulfonylphenyl)-5-(trifluoromethyl)-pyridine-3-carboxamide]",5.62
16,"NS(=O)(=O)c1cccc(NC(=O)c2cc(C(F)(F)F)cnc2N2CCCCCC2)c1 [Example 44, 2-(azepan-1-yl)-N-(3-sulfamoylphenyl)-5-(trifluoromethyl)-pyridine-3-carboxamide]",8.02
17,"COc1ccc(C(=O)Nc2cccc(C(N)=O)c2)c(N2CCCC(F)(F)CC2)n1 [Example 18, N-(3-carbamoyl-phenyl)-2-(4,4-difluoroazepan-1-yl)-6-methoxy-pyridine-3-carboxamide]",7.28
18,"Cc1nc(N2CCC3(CC2)CC3)c(C(=O)Nc2cccc(S(N)(=O)=O)c2)c(C)c1Cl [Example 76, 2-(6-azaspiro[2.5]-octan-6-yl)-5-chloro-4,6-dimethyl-N-(3-sulfamoylphenyl) pyridine-3-carboxamide]",8.66

row,Structure (SMILES),pIC50
1,"Cc1nc(N2CCCCCC2)c(C(=O)Nc2cccc(S(C)(=O)=O)c2)c(C)c1Cl [Example 7, 2-(azepan-1-yl)-5-chloro-4,6-dimethyl-N-(3-methylsulfonyl-phenyl)pyridine-3-carboxamide]",8.46
2,"C[C@@H]1CN(c2ncc(C(F)(F)F)cc2C(=O)Nc2cccc(S(N)(=O)=O)c2)C[C@H](C(F)(F)F)O1 [Example 142, 2-[(2R,6R)-2-methyl-6-(trifluoromethyl)morpholin-4-yl]-N-(3-sulfamoylphenyl)-5-(trifluoromethyl)-pyridine-3-carboxamide]",5.94
3,"NS(=O)(=O)c1cccc(NC(=O)c2cnc(C3CC3)nc2N2CCCC(F)(F)CC2)c1 [Example 180, 2-cyclopropyl-4-(4,4-difluoroazepan-1-yl)-N-(3-sulfamoylphenyl)pyrimidine-5-carboxamide]",7.62
4,"CS(=O)(=O)c1cccc(NC(=O)c2cc(C(F)(F)F)cnc2N2CCc3ccccc3C2)c1 [Example 98, 2-(3,4-dihydro-1H-isoquinolin-2-yl)-N-(3-methylsulfonylphenyl)-5-(trifluoromethyl)-pyridine-3-carboxamide]",7.03
5,"COc1ccc(C(=O)Nc2cccc(S(C)(=O)=O)c2)c(N2CCCC(F)(F)CC2)n1 [Example 11, 2-(4,4-difluoroazepan-1-yl)-6-methoxy-N-(3-methylsulfonylphenyl) pyridine-3-carboxamide]",7.51
6,"C[C@H]1CN(c2ncc(C(F)(F)F)cc2C(=O)Nc2cccc(S(N)(=O)=O)c2)C[C@@H](C(F)(F)F)O1 [Example 148, 2-[(2S,6S)-2-methyl-6-(trifluoromethyl)-morpholin-4-yl]-N-(3-sulfamoylphenyl)-5-(trifluoromethyl) pyridine-3-carboxamide]",6.95
7,"Cc1cc(C)c(C(=O)Nc2cccc(S(N)(=O)=O)c2)c(N2CCCCCC2)n1 [Example 4, 2-(azepan-1-yl)-4,6-dimethyl-N-(3-sulfamoyl-phenyl)pyridine-3-carboxamide]",7.85
8,"CC(C)(C)c1nc(N2CCCCC2)c(C(=O)Nc2cccc(S(N)(=O)=O)c2)cc1Cl [Example 40, 6-(tert-butyl)-5-chloro-2-(piperidin-1-yl)-N-(3-sulfamoylphenyl)nicotinamide]",5.93
9,"NS(=O)(=O)c1cccc(NC(=O)c2cc(C3COC3)cnc2N2CCCC(F)(F)CC2)c1 [Example 160, 2-(4,4-difluoroazepan-1-yl)-5-(oxetan-3-yl)-N-(3-sulfamoylphenyl)nicotinamide]",6.17
10,"COC(=O)C1CCCN(c2ncc(C(F)(F)F)cc2C(=O)Nc2cccc(S(N)(=O)=O)c2)CC1 (stereo not drawn) [Example 48, methyl 1-[3-[(3-sulfamoylphenyl)-carbamoyl]-5-(tri-fluoromethyl)-2-pyridyl]azepane-4-carboxylate]",6.79
11,"CC(C)Cc1cnc(N2CCCCC2)c(C(=O)Nc2cccc(S(N)(=O)=O)c2)c1 [Example 153, 5-isobutyl-2-(piperidin-1-yl)-N-(3-sulfamoylphenyl)nicotinamide]",5.65
12,"C[Si](C)(C)c1cc(C(=O)Nc2cccc(S(N)(=O)=O)c2)c(N2CCCCCC2)nc1OC(F)(F)F [Example 85, 2-(azepan-1-yl)-N-(3-sulfamoylphenyl)-6-(trifluoromethoxy)-5-(trimethylsilyl)nicotinamide]",5.91
13,"NS(=O)(=O)c1cccc(NC(=O)c2cc(F)cnc2N2CCCCC2)c1 [Example 6, 5-fluoro-2-(1-piperidyl)-N-(3-sulfamoyl-phenyl)pyridine-3-carboxamide]",5.08
14,"Cc1cc(Cl)c(C(=O)Nc2cccc(S(N)(=O)=O)c2)c(N2CCCCCC2)n1 [Example 158, 2-(azepan-1-yl)-4-chloro-6-methyl-N-(3-sulfamoylphenyl)-pyridine-3-carboxamide]",6.04
15,"CN1C2CCC1CN(c1ncc(C(F)(F)F)cc1C(=O)Nc1cccc(S(N)(=O)=O)c1)C2 (racemic) [Example 71, 2-[rac-(1S,5R and 1R,5S)-8-methyl-3,8-diazabicyclo[3.2.1]-octan-3-yl]-N-(3-sulfamoylphenyl)-5-(trifluoromethyl) pyridine-3-carboxamide]",5.26
16,"NS(=O)(=O)c1cccc(NC(=O)c2cc(C(F)(F)F)cnc2N2CCc3scnc3C2)c1 [Example 55, 2-(6,7-dihydro-4H-thiazol[4,5-c]pyridin-5-yl)-N-(3-sulfamoyl-phenyl)-5-(trifluoro-methyl)pyridine-3-carboxamide]",6.39
17,"Cc1nc(N2CCC(F)(F)CC2)c(C(=O)Nc2cccc(C#N)c2)c(C)c1Cl [Example 20, 5-chloro-N-(3-cyanophenyl)-2-(4,4-difluoro-1-piperidyl)-4,6-dimethyl-pyridine-3-carboxamide]",7.13
18,"NC(=O)c1cccc(NC(=O)c2cc(C(F)(F)F)cnc2N2CCCC(F)(F)C2)c1 [Example 110, N-(3-carbamoylphenyl)-2-(3,3-difluoro-1-piperidyl)-5-(tri-fluoromethyl)pyridine-3-carboxamide]",5.42
